# System: HIV-1 BA-L
# Assay: Inhibitory effect on HIV-1 infection to MAGI-CCR5 cell (β-galactosidase activity)
# Format: cell-based
# Settings: 100 μl of medium containing 1.6 μM Test Compound plus 100 μl of medium containing 300PFU HIV-1 BA-L; MAGI-CCR5 cells; 37° C., 2 days
# Description: The plasmid where β-galactosidase gene was ligated downstream of HIV-1 LTR was introduced into CD4 positive HeLa cell, to which human CCR5 was further introduced to obtain transformant MAGI-CCR5. By using said transformant MAGI-CCR5, degree of HIV-1 infection was calculated from β-galactosidase activity (blue color due to decomposition of 5-bromo-4-chloro-3-indolyl-β-D-galactopyranoside). Specifically, MAGI-CCR5 cells were suspended in DMEM medium containing 10% serum to prepare 5×10^4 cells/ml suspension. To each well of 96 well plate was inoculated 200 μl of the suspension, and the cells were cultivated at 37° C. overnight. The medium was removed by means of suction, and to the residue was added 100 μl of the above medium containing 1.6 μM of Test Compound and 100 μl of the above medium containing 300PFU of HIV-1 BA-L cells. The cells were cultivated at 37° C. for 2 days. The medium was removed by means of suction. To the residue was added 200 μl of cell fixative (PBS containing 1% formaldehyde and 0.2% glutaraldehyde), and the mixture was allowed to stand at room temperature for 5 minutes and washed twice with PBS. To the mixture was added 100 μl of staining solution (PBS containing […] and 0.4 mg/ml X-gal), and the mixture was allowed to stand at 37° C. for 50 minutes and washed twice with PBS. The number of blue cells was counted by microscope and defined as the number of cells infected with HIV-1. According to this method, inhibition rate on HIV-1 infection was determined.
row,Compound,Inhibition Rate (HIV-1 infection)
1,"CCCCOCCOc1ccc(-c2ccc3c(c2)C=C(C(=O)Nc2ccc(CN(C)C4CCOCC4)cc2)CCS3(=O)=O)cc1 [Compound 98, 7-[4-(2-butoxyethoxy)phenyl]-N-[4-[[N-methyl-N-(tetrahydropyran-4-yl)amino]methyl]phenyl]-1,1-dioxo-2,3-dihydro-1-benzothiepine-4-carboxamide]",91%
2,"CCCOc1ccc(-c2ccc3c(c2)C=C(C(=O)Nc2ccc(CN(C)C4CCOCC4)cc2)CCS3(=O)=O)cc1 [Compound 29, N-[4-[N-methyl-N-(tetrahydropyran-4-yl)aminomethyl]phenyl]-7-(4-propoxyphenyl)-1,1-dioxo-2,3-dihydro-1-benzothiepine-4-carboxamide]",91%
3,"CCCCOc1ccc(-c2ccc3c(c2)C=C(C(=O)Nc2ccc(CN(C)C4CCOCC4)cc2)CCS3(=O)=O)cc1 [Compound 30, 7-(4-butoxyphenyl)-N-[4-[N-methyl-N-(tetrahydropyran-4-yl)aminomethyl]phenyl]-1,1-dioxo-2,3-dihydro-1-benzothiepine-4-carboxamide]",91%

# Biological target: T1, human CCR5 (Homo sapiens, UniProt P51681)
# T1 construct: expressed in transfected cells; host or cells: CHO-K1 cells, electroporated with plasmid pCKR5 (pcDNA3.1 backbone), geneticin-selected (CHO/CCR5)
# T1 sequence (P51681 whole entry): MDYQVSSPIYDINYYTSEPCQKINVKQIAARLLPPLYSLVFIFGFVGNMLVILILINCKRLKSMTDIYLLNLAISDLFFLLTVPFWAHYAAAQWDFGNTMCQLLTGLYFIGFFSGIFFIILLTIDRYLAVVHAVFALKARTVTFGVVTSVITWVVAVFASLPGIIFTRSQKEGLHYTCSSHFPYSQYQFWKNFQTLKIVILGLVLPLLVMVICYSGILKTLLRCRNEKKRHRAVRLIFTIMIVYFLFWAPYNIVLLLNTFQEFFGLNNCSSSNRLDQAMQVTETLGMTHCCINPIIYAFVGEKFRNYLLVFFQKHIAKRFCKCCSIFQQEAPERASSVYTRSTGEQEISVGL
# Assay: Inhibition of [125I]-RANTES binding to human CCR5 in CHO/CCR5 cells (CCR5 antagonistic activity)
# Settings: Test Compound 1 μM, 100 pM [125I]-RANTES, room temperature, 40 minutes, read-out: Inhibition Rate (CCR5 binding)
# Description: Cloning of CCR5 gene was carried out by PCR (polymerase chain reaction) from human spleen cDNA. With using 0.5 ng of spleen cDNA (Toyobo, QUICK-Clone cDNA) as template, PCR was performed in DNA Thermal Cycler 480 (Perkin-Elmer) (reaction conditions: 30 cycles of 95° C. for 1 minute, 60° C. for 1 minute, and 75° C. for 5 minutes) by adding primer set, 5'-[…]-3' (25 pmol) and 5'-[…]-3' (25 pmol), which were designed referring to nucleotide sequence of CCR5 gene reported by Samson et al. (Biochemistry, 35(11), 3362-3367 (1996)) and by using TaKaRa EX Taq (TakaraShuzo). The resultant PCR product was subjected to agarose gel. electrophoresis to collect about 1.0 kb DNA fragment, which was subjected to Original TA Cloning Kit (Funakoshi) to carry out cloning of CCR5 gene.
# The plasmid obtained in the above (1) was digested with restriction enzymes XbaI (Takara Shuzo) and BamHI (Takara Shuzo) and subjected to agarose gel electrophoresis to collect about 1.0 kb DNA fragment. The DNA fragment was mixed with plasmid pcDNA3.1 (Funakoshi) for expression in animal cells, said plasmid being digested with XbaI and BamHI, and they were ligated with DNA Ligation Kit Ver.2 (Takara Shuzo). The resulting plasmid was subjected to transformation of competent cell of E. coli JM109 (Takara Shuzo) to obtain plasmid pCKR5.
# CHO-K1 cells were grown in 750 ml of tissue culture flask (Becton Dickinson) using Ham's F12 medium (Nihon Pharmaceutical) containing 10% fetal calf serum (Life Tech Oriental) and took off with 0.5 g/L trypsin-0.2 g/L EDTA (Life Tech Oriental). The cells were washed with PBS (Life Tech Oriental), centrifuged (1000 rpm, 5 minutes), and suspended in PBS. With using Gene Pulser (Bio-Rad Laboratories), DNA was introduced into the cells under the conditions shown below. That is, to the cuvette of 0.4 cm gap were added 8×10^6 cells and 10 μg of plasmid pCKR5 for expression of human CCR5, and electroporation was carried out under 0.25 kV of voltage and 960 μF of capacitance. The cells were transferred into Ham's F12 medium (Nihon Pharmaceutical) containing 10% fetal calf serum, and cultivated for 24 hours. The cells were again took off and centrifuged, and suspended in Ham's F12 medium (Nihon Pharmaceutical) containing 10% fetal calf serum and 500 μg/ml of geneticin (Life Tech Oriental). The suspension was diluted to give 10^4 cells/ml of the suspension, which was inoculated on 96 well plate (Becton Dickinson) to give geneticin resistant cells. The resulting geneticin resistant cells were cultivated in 96 well plate (Becton Dickinson), and cells expressing CCR5 were selected from the geneticin resistant cells. That is, in assay buffer (Ham's F12 medium containing 0.5% BSA and 20 mM HEPES (Wako Pure Chemical, pH7.2) to which was added 200 pM of [^125 I]-RANTES (Amersham) as ligand, binding reaction was carried out at room temperature for 40 minutes, and the buffer was washed with cooled PBS. To the buffer was added 50 μl/well of 1M NaOH, and the mixture was stirred. Radioactivity was determined with γ-counter to select CHO/CCR5 cells which specifically bind to the ligand.
# The CHO/CCR5 were inoculated on 96 well microplate (5×10^4 cells/well) and cultivated for 24 hours. The medium was removed by means of suction, and to each well was added assay buffer containing Test Compound (1 μM) and then 100 pM of [^125 I]-RANTES (Amersham) as ligand. Binding assay was carried out at room temperature for 40 minutes, and assay buffer was removed by means of suction. Each well was washed twice with cooled PBS, and 200 μl of Microscint-20 (Packard Instrument, Inc.) was added to each well. Radio-activity was determined with Top-Count Micro Scintillation Counter (Packard Instrument, Inc.).
# According to the method described above, inhibition rate of Test Compound (whose number is referred to in the following Examples) to CCR5 binding.
row,inhibition at 1 µM,Compound
1,100%,"CCCc1ccc(-c2ccc3c(c2)C=C(C(=O)Nc2ccc(CN(C)C4CCOCC4)cc2)CCS3(=O)=O)cc1 [Compound 27, N-[4-[N-methyl-N-(tetrahydropyran-4-yl)aminomethyl]phenyl]-7-(4-propylphenyl)-1,1-dioxo-2,3-dihydro-1-benzothiepine-4-carboxamide]"
2,95%,"CCOCCOc1ccc(-c2ccc3c(c2)C=C(C(=O)Nc2ccc(CN(C)C4CCOCC4)cc2)CCS3(=O)=O)cc1C [Compound 129, 7-[4-(2-ethoxyethoxy)-3-methyl-phenyl]-N-[4-[[N-methyl-N-(tetrahydropyran-4-yl)amino]methyl]phenyl]-1,1-dioxo-2,3-dihydro-1-benzothiepine-4-carboxamide]"
3,97%,"CCOCCOc1c(C)cc(-c2ccc3c(c2)C=C(C(=O)Nc2ccc(CN(C)C4CCOCC4)cc2)CCS3(=O)=O)cc1C [Compound 124, 7-[4-(2-ethoxyethoxy)-3,5-dimethylphenyl]-N-[4-[[N-methyl-N-(tetrahydro-2H-pyran-4-yl)amino]methyl]phenyl]-1,1-dioxo-2,3-dihydro-1-benzothiepine-4-carboxamide]"
4,100%,"CCCOc1ccc(-c2ccc3c(c2)C=C(C(=O)Nc2ccc(CN(C)C4CCOCC4)cc2)CCS3(=O)=O)cc1 [Compound 29, N-[4-[N-methyl-N-(tetrahydropyran-4-yl)aminomethyl]phenyl]-7-(4-propoxyphenyl)-1,1-dioxo-2,3-dihydro-1-benzothiepine-4-carboxamide]"
5,95%,"CCCOCCOc1ccc(-c2ccc3c(c2)C=C(C(=O)Nc2ccc(CN(C)C4CCOCC4)cc2)CCS3(=O)=O)cc1C [Compound 75, 7-[3-methyl-4-(2-propoxyethoxy)phenyl]-N-[4-[[N-methyl-N-(tetrahydropyran-4-yl)amino]methyl]phenyl]-1,1-dioxo-2,3-dihydro-1-benzothiepine-4-carboxamide]"
6,97%,"CCOCCOc1ccc(-c2ccc3c(c2)C=C(C(=O)Nc2ccc(CN(C)C4CCOCC4)cc2)CCS3(=O)=O)cc1 [Compound 84, 7-[4-(2-ethoxyethoxy)phenyl]-N-[4-[[N-methyl-N-(tetrahydropyran-4-yl)amino]methyl]phenyl]-1,1-dioxo-2,3-dihydro-1-benzothiepine-4-carboxamide]"
7,91%,"CCOc1ccc(-c2ccc3c(c2)C=C(C(=O)Nc2ccc(CN(C)C4CCOCC4)cc2)CCS3(=O)=O)cc1 [Compound 4, 7-(4-ethoxyphenyl)-N-[4-[N-methyl-N-(tetrahydropyran-4-yl)aminomethyl]phenyl]-1,1-dioxo-2,3-dihydro-1-benzothiepine-4-carboxamide]"
8,99%,"CCN(CC)c1ccc(-c2ccc3c(c2)C=C(C(=O)Nc2ccc(CN(C)C4CCOCC4)cc2)CCS3(=O)=O)cc1 [Compound 54, 7-(4-diethylaminophenyl)-N-[4-[[N-methyl-N-(tetrahydropyran-4-yl)amino]methyl]phenyl]-1,1-dioxo-2,3-dihydro-1-benzothiepine-4-carboxamide]"
9,92%,"CCCOc1ccc(-c2ccc3c(c2)C=C(C(=O)Nc2ccc(CN(C)C4CCOCC4)cc2)CCS3(=O)=O)cc1OCC [Compound 125, 7-(3-ethoxy-4-propoxyphenyl)-N-[4-[[N-methyl-N-(tetrahydro-2H-pyran-4-yl)amino]methyl]phenyl]-1,1-dioxo-2,3-dihydro-1-benzothiepine-4-carboxamide]"
10,95%,"CC(C)OCCOc1ccc(-c2ccc3c(c2)C=C(C(=O)Nc2ccc(CN(C)C4CCOCC4)cc2)CCS3(=O)=O)cc1 [Compound 111, 7-[4-(2-isopropoxyethoxy)phenyl]-N-[4-[[N-methyl-N-(tetrahydropyran-4-yl)amino]methyl]phenyl]-1,1-dioxo-2,3-dihydro-1-benzothiepine-4-carboxamide]"
11,96%,"CCSc1ccc(-c2ccc3c(c2)C=C(C(=O)Nc2ccc(CN(C)C4CCOCC4)cc2)CCS3(=O)=O)cc1 [Compound 44, 7-[(4-ethylthio)phenyl]-N-[4-[N-methyl-N-(tetrahydropyran-4-yl)aminomethyl]phenyl]-1,1-dioxo-2,3-dihydro-1-benzothiepine-4-carboxamide]"
12,94%,"CCCOCCOc1ccc(-c2ccc3c(c2)C=C(C(=O)Nc2ccc(CN(C)C4CCOCC4)cc2)CCS3(=O)=O)cc1Cl [Compound 74, 7-[3-chloro-4-(2-propoxyethoxy)phenyl]-N-[4-[[N-methyl-N-(tetrahydropyran-4-yl)amino]methyl]phenyl]-1,1-dioxo-2,3-dihydro-1-benzothiepine-4-carboxamide]"
13,94%,"CCOCCCc1ccc(-c2ccc3c(c2)C=C(C(=O)Nc2ccc(CN(C)C4CCOCC4)cc2)CCS3(=O)=O)cc1 [Compound 123, 7-[4-(3-ethoxypropyl)phenyl]-N-[4-[[N-methyl-N-(tetrahydro-2H-pyran-4-yl)amino]methyl]phenyl]-1,1-dioxo-2,3-dihydro-1-benzothiepine-4-carboxamide]"
14,94%,"CCCOCCOc1ccc(-c2ccc3c(c2)C=C(C(=O)Nc2ccc(CN(C)C4CCOCC4)cc2)CCS3(=O)=O)cc1OCC [Compound 73, 7-[3-ethoxy-4-(2-propoxyethoxy)phenyl]-N-[4-[[N-methyl-N-(tetrahydropyran-4-yl)amino]methyl]phenyl]-1,1-dioxo-2,3-dihydro-1-benzothiepine-4-carboxamide]"

row,Compound,inhibition at 1 µM
1,"CCCCOCCOc1ccc(-c2ccc3c(c2)C=C(C(=O)Nc2ccc(CN(C)C4CCOCC4)cc2)CCS3(=O)=O)cc1 [Compound 98, 7-[4-(2-butoxyethoxy)phenyl]-N-[4-[[N-methyl-N-(tetrahydropyran-4-yl)amino]methyl]phenyl]-1,1-dioxo-2,3-dihydro-1-benzothiepine-4-carboxamide]",98%
2,"CCCCOc1ccc(-c2ccc3c(c2)C=C(C(=O)Nc2ccc(CN(C)C4CCOCC4)cc2)CCS3(=O)=O)cc1 [Compound 30, 7-(4-butoxyphenyl)-N-[4-[N-methyl-N-(tetrahydropyran-4-yl)aminomethyl]phenyl]-1,1-dioxo-2,3-dihydro-1-benzothiepine-4-carboxamide]",99%

# From patent publication US6235771A, “Anilide derivative, production and use thereof” (Takeda Chemical Industries, Ltd., priority 1998, dated 2001)
